Assay type in all cases: functional
One test relates to Staphylococcus aureus. Nature of the test: Antibacterial activity against Staphylococcus aureus UC 9218.
For a further test, the system named is Enterococcus faecalis. Nature of the test: Antibacterial activity against Enterococcus faecalis UC 9217.
Test [1] concerns Staphylococcus epidermidis. Briefly: Antibacterial activity against Staphylococcus epidermidis UC 12084.
A further test concerns Streptococcus pneumoniae. Nature of the test: Antibacterial activity against Streptococcus pneumoniae UC 9912.
In another test the test system is Haemophilus influenzae. Nature of the test: Antibacterial activity against Haemophilus influenzae 30063.

This passage reports MIC results from ChEMBL document CHEMBL1147908, “Preparation of novel anthranilic acids as antibacterial agents. Extensive evaluation of alternative amide bioisosteres connecting the A- and the B-rings” (2007).

Converted amounts (≈) assume the structure as drawn.

Regarding `N#Cc1ccc(/C=C/c2cccc(S(=O)(=O)N3CCc4cc(Cl)ccc43)c2)c(C(=O)O)c1`, the MIC is 0.25 µg/mL (≈ 0.538 µM) in the test with Staphylococcus aureus; 128 µg/mL (≈ 275 µM) against Enterococcus faecalis; 0.5 µg/mL (≈ 1.08 µM) in test [1]; greater than 128 µg/mL against Streptococcus pneumoniae; greater than 128 µg/mL in the test on Haemophilus influenzae.

With `O=C(O)c1cc(Br)ccc1-c1nnc(-c2ccccc2)o1`, the MIC (against Staphylococcus aureus; in the test with Enterococcus faecalis; in test [1]; in the test with Streptococcus pneumoniae; with Haemophilus influenzae) was greater than 128 µg/mL throughout.

As to `O=C(O)c1cc(Br)ccc1-c1nnc(-c2ccccc2)[nH]1`, the MIC (against Staphylococcus aureus; in the test on Enterococcus faecalis; in test [1]; against Streptococcus pneumoniae; with Haemophilus influenzae) was greater than 128 µg/mL each time.

Turning to `N#Cc1ccc([C@H]2C[C@@H]2c2cccc(S(=O)(=O)N3CCc4cc(Cl)ccc43)c2)c(C(=O)O)c1`, the MIC was 4 µg/mL (≈ 8.35 µM) in the test on Staphylococcus aureus; greater than 128 µg/mL against Enterococcus faecalis; 8 µg/mL (≈ 16.7 µM) in test [1]; greater than 128 µg/mL with Streptococcus pneumoniae; 16 µg/mL (≈ 33.4 µM) in the test with Haemophilus influenzae.

Take `O=C(O)c1cc(Cl)ccc1-c1ccc(S(=O)(=O)N2CCc3cc(Cl)ccc32)cc1`: the MIC was 128 µg/mL (≈ 286 µM) in the test with Staphylococcus aureus; greater than 128 µg/mL in the test with Enterococcus faecalis; 128 µg/mL (≈ 286 µM) in test [1]; greater than 128 µg/mL against Streptococcus pneumoniae; greater than 128 µg/mL with Haemophilus influenzae.

Consider `Cc1ccc(S(=O)(=O)Nc2ccc(-c3ccc(Cl)cc3)c(C(=O)O)c2)cc1`, for which the MIC in the test on Staphylococcus aureus is greater than 128 µg/mL; against Enterococcus faecalis, greater than 128 µg/mL; in test [1], 64 µg/mL (≈ 159 µM); against Streptococcus pneumoniae it was greater than 128 µg/mL; with Haemophilus influenzae, greater than 128 µg/mL.

On to `N#Cc1ccc(NC(=S)c2cccc(S(=O)(=O)N3CCc4cc(Cl)ccc43)c2)c(C(=O)O)c1`, for which the MIC in the test on Staphylococcus aureus was 0.125 µg/mL (≈ 0.251 µM); against Enterococcus faecalis, 32 µg/mL (≈ 64.3 µM); in test [1], 0.125 µg/mL (≈ 0.251 µM); in the test on Streptococcus pneumoniae, 16 µg/mL (≈ 32.1 µM); in the test with Haemophilus influenzae, 64 µg/mL (≈ 129 µM).

For `O=C(Nc1ccc(Br)cc1C(=O)O)c1ccc(S(=O)(=O)N2CCc3cc(Cl)ccc32)cc1`, the MIC against Staphylococcus aureus stood at 0.5 µg/mL (≈ 0.933 µM); in the test with Enterococcus faecalis, 32 µg/mL (≈ 59.7 µM); in test [1], 4 µg/mL (≈ 7.47 µM); with Streptococcus pneumoniae, 4 µg/mL (≈ 7.47 µM); in the test with Haemophilus influenzae, 128 µg/mL (≈ 239 µM).

In the case of `O=C(O)c1cc(Cl)ccc1CCc1ccc(S(=O)(=O)N2CCc3cc(Cl)ccc32)cc1`, the MIC was 32 µg/mL (≈ 67.2 µM) against Staphylococcus aureus; greater than 128 µg/mL in the test with Enterococcus faecalis; 32 µg/mL (≈ 67.2 µM) in test [1]; 32 µg/mL (≈ 67.2 µM) with Streptococcus pneumoniae; greater than 128 µg/mL in the test with Haemophilus influenzae.

`N#Cc1ccc(C=Cc2cccc(S(=O)(=O)N3CCc4cc(Cl)ccc43)c2)c(C(=O)O)c1`: the MIC against Staphylococcus aureus was 16 µg/mL (≈ 34.4 µM); against Enterococcus faecalis, greater than 128 µg/mL; in test [1], 32 µg/mL (≈ 68.8 µM); against Streptococcus pneumoniae, 64 µg/mL (≈ 138 µM); in the test on Haemophilus influenzae it was greater than 128 µg/mL.
